Measurements reported in ChEMBL document CHEMBL6127081, “Peptide inhibitors targeting Ras and Ras-associated protein-protein interactions” (Eur J Med Chem, 2024).
One block for each compound: values may come before it. Where a SMILES comes first, the peptide text is derived from it. Bridges are numbered along the chain shown (N, C = ends). [ ]: non-standard residue; d: D form. The star is where a group is joined. hPhe(3,5-F2-4-CF3) = N[C@@H](CCc1cc(F)c(C(F)(F)F)c(F)c1)C(=O)O; hPhe(3-Cl-4-CF3) = N[C@@H](CCc1ccc(C(F)(F)F)c(Cl)c1)C(=O)O; hPhe(4-CF3) = N[C@@H](CCc1ccc(C(F)(F)F)cc1)C(=O)O; NEtPhe(4-Me) = CCN[C@@H](Cc1ccc(C)cc1)C(=O)O; NMePhe(4-Cl) = CN[C@@H](Cc1ccc(Cl)cc1)C(=O)O; Phe(3-Cl) = N[C@@H](Cc1cccc(Cl)c1)C(=O)O; NMeGly(cPent) = CN[C@H](C(=O)O)C1CCCC1; NMeCha = CN[C@@H](CC1CCCCC1)C(=O)O; NMeF = CN[C@@H](Cc1ccccc1)C(=O)O; NMeD = CN[C@@H](CC(=O)O)C(=O)O; NMeL = CN[C@@H](CC(C)C)C(=O)O; NMeV = CN[C@H](C(=O)O)C(C)C; NMeA = CN[C@@H](C)C(=O)O; Pyrrolidide = C1CCN(*)C1; Ac5c = NC1(C(=O)O)CCCC1; Aze = O=C(O)[C@@H]1CCN1; β3hA = C[C@H](N)CC(=O)O; Sar = CNCC(=O)O

Key:
GTPase KRas [1] = molecular target: T1, GTPase KRas (Homo sapiens, UniProt P01116); experiment: Inhibition of KRas (unknown origin)
SOS1-KRAS = SOS1-KRAS (Homo sapiens, UniProt P01116, G12D); experiment: Inhibition of KRAS G12D mutant/SOS1 (unknown origin) interaction by TR-FRET assay; type: protein-complex assay
GTPase KRas [2] = molecular target: T1, GTPase KRas; experiment: Binding affinity to GTP bound KRas (unknown origin) assessed as dissociation constant by fluorescence anisotropy assay
GTPase KRas [3] = molecular target: T1, GTPase KRas; experiment: Binding affinity to GppNHp bound KRas (unknown origin) assessed as dissociation constant by fluorescence anisotropy assay
[4] = Inhibition of Biotinylated Avi-tagged KRas G12D mutant/GST tagged Raf1-RBD domain (1 to 149 residues) (unknown origin) incubated for 1 hr by TR-FRET assay; design: species or system Homo sapiens
GTPase KRas [5] = molecular target: T2, GTPase KRas (Homo sapiens, UniProt P01116, G12D); experiment: Binding affinity to KRas G12D mutant (unknown origin) assessed as dissociation constant by SPR analysis
GTPase KRas [6] = molecular target: T2, GTPase KRas; experiment: Inhibition of KRas G12D mutant (unknown origin) by TR-FRET assay

T1 sequence (P01116 whole entry): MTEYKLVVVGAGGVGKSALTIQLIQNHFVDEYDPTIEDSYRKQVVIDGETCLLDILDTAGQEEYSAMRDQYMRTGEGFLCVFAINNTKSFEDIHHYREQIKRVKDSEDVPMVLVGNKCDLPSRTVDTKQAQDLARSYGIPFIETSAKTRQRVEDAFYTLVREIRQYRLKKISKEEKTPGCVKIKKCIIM
Sequence of SOS1-KRAS (P01116 whole entry G12D, looked up): as the sequence (P01116 whole entry) above, with G12D counted along it
T2 sequence (P01116 whole entry G12D): as the sequence (P01116 whole entry) above, with G12D counted along it

Structure (SMILES): CC(C)C[C@H](NC(=O)C1CCCOCc2cnnn2CCC(=O)NCC(=O)N2CCCC[C@H]2C(=O)N[C@@H](Cc2cccc3ccccc23)C(=O)N1)C(N)=O (stereo partly drawn)
- IC50 (GTPase KRas [1]): 7700 nM

Structure (SMILES): C[C@@H](NC(=O)[C@H](Cc1ccccc1)NC(=O)[C@@H](CCCNC(=N)N)NC(=O)[C@H](CCCN)NC(=O)[C@@H]1CNC(=O)c2cc3cc(c2)C(=O)N[C@H](Cc2ccc4ccccc4c2)C(=O)N[C@@H](CO)C(=O)N[C@@H](CC(N)=O)C(=O)N[C@H](Cc2ccc4ccccc4c2)C(=O)N[C@@H](c2ccccc2)C(=O)N[C@@H](CCCCNC3=O)C(=O)N[C@H](Cc2ccccc2)C(=O)N[C@@H](CCC(N)=O)C(=O)N[C@H](CCCNC(=N)N)C(=O)CN[C@@H](CCCNC(=N)N)C(=O)N1)C(N)=O
- IC50 (SOS1-KRAS): 120 nM

Structure (SMILES): CC(C)[C@H]1NC(=O)[C@H](CCCNC(=N)N)NC(=O)[C@@H](Cc2ccccc2)NC(=O)[C@@H]2CCCCNC(=O)c3cc(cc(c3)C(=O)N[C@H](Cc3ccc4ccccc4c3)C(=O)N[C@@H](CO)C(=O)N[C@@H](CCC(N)=O)C(=O)N[C@H](Cc3ccc4ccccc4c3)C(=O)N[C@@H](c3ccccc3)C(=O)N2)C(=O)NC[C@@H](C(N)=O)NC(=O)[C@H](CCCNC(=N)N)NCC1=O
- Kd (GTPase KRas [2]): 1200 nM
- Kd (GTPase KRas [3]): 1600 nM

Structure (SMILES): CC[C@H](C)[C@@H]1NC(=O)[C@@H]2CCCN2C(=O)[C@H](Cc2ccc(O)cc2)NC(=O)[C@@H](NC(=O)[C@H](CC(=O)O)NC(=O)[C@H](Cc2ccc(O)cc2)NC(=O)[C@H](Cc2ccccc2)NC(=O)[C@H](Cc2c[nH]cn2)NC(=O)[C@@H](N)Cc2ccccc2)CC#CC[C@@H](C(=O)N[C@@H](CC(C)C)C(=O)N[C@H](C(=O)N2CCC[C@H]2C(=O)N2CCC[C@H]2C(N)=O)[C@@H](C)CC)NC1=O
- IC50 (GTPase KRas [1]): 23 nM

Structure (SMILES): CC[C@H](C)[C@H](NC(=O)CNC(=O)[C@H](Cc1ccccc1)NC(=O)[C@H](Cc1ccccc1)NC(=O)[C@H](CCCNC(=N)N)NC(=O)[C@H](CCCNC(=N)N)NC(C)=O)C(=O)N[C@@]1(C)CCC/C=C\CCC[C@@](C)(C(=O)N[C@@H](CC(C)C)C(=O)N[C@@H](CCCCN)C(=O)N[C@H](C(=O)N[C@@H](CCC(=O)O)C(=O)N[C@@H](CCC(=O)O)C(=O)NCC(=O)N[C@@H](CC(N)=O)C(N)=O)[C@@H](C)O)NC(=O)[C@@H](CC(N)=O)NC(=O)[C@H]([C@@H](C)O)NC(=O)[C@@H](CC(C)C)NC1=O
- IC50 (SOS1-KRAS): 36 nM

Structure (SMILES): CC[C@H](C)[C@@H]1NC(=O)[C@H](Cc2ccc(O)cc2)NC(=O)[C@H](CC(C)C)NC(=O)[C@@H]2CCCN2C(=O)[C@@H](NC(=O)[C@H](CCCNC(=N)N)NC(=O)[C@H](CCCNC(=N)N)NC(C)=O)CSSC[C@@H](C(=O)N[C@@H](CCCNC(=N)N)C(=O)N[C@@H](CCCNC(=N)N)C(N)=O)NC(=O)[C@H](C(C)C)NC(=O)[C@@H]2CCCN2C(=O)[C@H](CC(=O)O)NC(=O)[C@H](Cc2ccc(O)cc2)NC(=O)[C@H](CO)NC1=O (Ac-RRCPLYISYDPVCRR-NH2; disulfide 3-13)
- Kd (GTPase KRas [5]): 51 nM
- IC50 (GTPase KRas [6]): 8.9 nM

Further lines, results first:

- IC50 (SOS1-KRAS): 54 nM
Structure (SMILES): CC[C@H](C)[C@@H]1NC(=O)[C@H](C)N(C)C(=O)C[C@@H](C(=O)N2CCCC2)NC(=O)[C@H](C(C)C)N(C)C(=O)[C@H](Cc2ccccc2)N(C)C(=O)[C@H](Cc2c[nH]c3ccccc23)NC(=O)[C@H](Cc2cccc(Cl)c2)NC(=O)CN(C)C(=O)[C@H](Cc2ccc(Cl)cc2)N(C)C(=O)CN(C)C(=O)CN(C)C1=O ([NMeA]I[Sar][Sar][NMePhe(4-Cl)][Sar][Phe(3-Cl)]W[NMeF][NMeV]D-Pyrrolidide; lactam N-11)

- IC50 (SOS1-KRAS): < 2 nM
Structure (SMILES): CC[C@H](C)[C@@H]1NC(=O)[C@H](CC(C)C)N(C)C(=O)C[C@@H](C(=O)N(C)C)N(C)C(=O)[C@H](C2CCCC2)N(C)C(=O)C2(CCCC2)NC(=O)[C@@H]2CCCN2C(=O)[C@H](CCc2cc(F)c(C(F)(F)F)c(F)c2)NC(=O)CN(C)C(=O)[C@H](Cc2ccc(C)cc2)N(CC)C(=O)[C@@H]2CCN2C(=O)[C@H](C)N(C)C1=O ([NMeL]I[NMeA][Aze][NEtPhe(4-Me)][Sar][hPhe(3,5-F2-4-CF3)]P[Ac5c][NMeGly(cPent)][NMeD]-NMe2; lactam N-11)

- IC50 [4]: 15300 nM
Structure (SMILES): CC(C)C[C@@H]1NC(=O)[C@H](CCC(=O)O)NC(=O)[C@H](CC(C)C)NC(=O)[C@@H]2CCCN2C(=O)[C@H](CCCNC(=N)N)NC(=O)[C@H](Cc2ccc(O)cc2)NC(=O)[C@@H]2CCCN2C(=O)[C@H](Cc2ccc(O)cc2)NC(=O)[C@H](CC(N)=O)NC(=O)[C@@H](Cc2ccc(O)cc2)NC(=O)CSC[C@@H](C(=O)NCC(N)=O)NC(=O)[C@H](Cc2ccc(O)cc2)NC(=O)[C@H](Cc2c[nH]c3ccccc23)NC1=O

- IC50 (SOS1-KRAS): 18 nM
Structure (SMILES): CC[C@H](C)[C@@H]1NC(=O)[C@H](C)N(C)C(=O)C[C@@H](C(=O)N2CCCC2)NC(=O)[C@H](CC(C)C)N(C)C(=O)[C@H](Cc2ccccc2)N(C)C(=O)[C@H](CC(C)C)NC(=O)[C@H](CCc2ccc(C(F)(F)F)cc2)NC(=O)CN(C)C(=O)[C@H](Cc2ccc(Cl)cc2)N(C)C(=O)CN(C)C1=O ([NMeA]I[Sar][NMePhe(4-Cl)][Sar][hPhe(4-CF3)]L[NMeF][NMeL]D-Pyrrolidide; lactam N-10)

- IC50 (SOS1-KRAS): 24 nM
Structure (SMILES): CC[C@H](C)[C@@H]1NC(=O)[C@H](CC(C)C)N(C)C(=O)C[C@H](C)NC(=O)[C@H](C(C)C)N(C)C(=O)C2(CCCC2)NC(=O)[C@@H]2CCCN2C(=O)[C@H](CCc2ccc(C(F)(F)F)c(Cl)c2)NC(=O)CN(C)C(=O)[C@H](CC2CCCCC2)N(C)C(=O)[C@@H]2CCN2C(=O)[C@H](C)N(C)C1=O (cyclo([Ac5c][NMeV][β3hA][NMeL]I[NMeA][Aze][NMeCha][Sar][hPhe(3-Cl-4-CF3)]P))
